This is an account of results in patent publication US20120165319A1, “INHIBITORS OF INTERLEUKIN-1 BETA CONVERTING ENZYME” (VERTEX PHARMACEUTICALS INCORPORATED, priority 1995, published 2012).

Assay [1] has as its system IL-1β, human whole blood. Description: Whole blood assay for IL-1β production. It is filed as cell-based. The essentials: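 IL-1β was quantified by ELISA in plasma diluted 1:200. The plasma came from EDTA-anticoagulated human whole blood incubated at 30 °C for 16-18 h with LPS (final 5.0 ng/ml) plus a saline serial dilution of compound. Controls were no-LPS, no-inhibitor and highest-vehicle.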

The subject of assay [2] is IL-1β, human peripheral blood mononuclear cells (PBMC). Description: PBMC cell assay: IL-1β assay with human PBMC or enriched adherent mononuclear cells, LPS-stimulated. It is filed as cell-based. The essentials:
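Mature IL-1β is measured by ELISA in supernatants after 16–18 hr at 37 °C, 5% CO2, with LPS (5 ng/ml final) and test compound (0.1% DMSO final). Cells are human PBMC (6×10^6 cells/ml) or plate-adherent mononuclear cells (2.5−3.0×10^5 per well), and the 5–6 compound concentrations span the ICE Ki.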

[3] abbreviates: Homo sapiens, Table 17, read-out: Whole human blood IC50.
[4] abbreviates: Homo sapiens, * = values obtained upon reassay, read-out: Whole human blood IC50.
Setting [5] is: Homo sapiens, PBMC, * = values obtained upon reassay.
[6] abbreviates: * = values obtained upon reassay, read-out: Whole human blood IC50.
Setting [7] is: * = values obtained upon reassay.

SMILES strings stand for the structures. Like-named read-outs stand apart in the source and are kept apart here.

Regarding `O=C1C[C@H](NC(=O)[C@@H]2CCCN3C(=O)CC[C@H](NC(=O)c4ccccc4)C(=O)N23)C(OCCc2ccccc2)O1` (mixture of isomers) [Compound 2100k, [1S,9S(2RS,3S)]9-Benzoylamino-6,10-dioxo-1,2,3,4,7,8,9,10-octahydro-N-(2-phenethyloxy-5-oxotetrahydrofuran-3-yl)-6H-pyridazino[1,2-a][1,2]diazepine-1-carboxamide], the IC50 came out at 600 nM in assay [1] (setting [3]) and 4000 nM in assay [2] (Homo sapiens, PBMC, Table 17).

`CC(=O)N1C[C@H](NC(=O)c2ccc3ccccc3c2)C(=O)N(CC(=O)N[C@H](C=O)CC(=O)O)c2ccccc21` [Compound 605n]: the IC50 is greater than 20000 nM in assay [1] (setting [4]) and 2100 nM in assay [2] (setting [5]).

For the compound `CC(=O)N[C@H]1CCC(=O)N2CCC[C@@H](C(=O)N[C@@H](CC(=O)O)C(=O)COC(=O)c3c(Cl)cccc3Cl)N2C1=O` [Compound 217c, [3S(1S,9S)]3-(9-Acetylamino-6,10-dioxo-1,2,3,4,7,8,9,10-octahydro-6H-pyridazino-[1,2-a][1,2]diazepine-1-carboxamido)-5-(2,6-dichlorobenzoyloxy)-4-oxopentanoic acid], the IC50 in assay [1] (setting [4]) was 7000 nM; in assay [2] (setting [5]) it was 1700 nM.

`O=C(O)C[C@H](NC(=O)[C@@H]1CCCN2C(=O)CC[C@H](NC(=O)OCc3ccccc3)C(=O)N12)C(=O)COC(=O)c1c(Cl)cccc1Cl` [Compound 217d, [3S(1S,9S)]3-(9-Benzyloxycarbonylamino-6,10-dioxo-1,2,3,4,7,8,9,10-octahydro-6H-pyridazino[1,2-a][1,2]-diazepine-1-carboxamido)-5-(2,6-dichlorobenzoyloxy)-4-oxopentanoic acid]: the values for the IC50 in assay [1] (setting [4]) and in assay [2] (setting [5]) were 4000 nM and 340 nM, respectively.

In the case of `O=C[C@H](CC(=O)O)NC(=O)CN1C(=O)[C@@H](NC(=O)c2ccccc2)CN(C(=O)CO)c2ccccc21` [Compound 668, (3S)-3-[(3S)-2-Oxo-3-benzoylamino-5-(2-hydroxy)acetyl-2,3,4,5-tetrahydro-1H-1,5-benzodiazepine-1-acetylamino]-4-oxo-butyric acid], the IC50 came to 3700 nM in assay [1] (setting [3]) and 5200 nM in assay [2] (Homo sapiens, PBMC, Table 17).

As for `CS(=O)(=O)N[C@H]1CCC(=O)N2CCC[C@@H](C(=O)N[C@@H](CC(=O)O)C(=O)COC(=O)c3sccc3Cl)N2C1=O` [505 e, [3S(1S,9S)]5-(3-Chlorothien-2-oyloxy)-3-(6,10-dioxo-9-methanesulphonylamino-1,2,3,4,7,8,9,10-octahydro-6H-pyridazino[1,2-a][1,2]diazepine-1-carboxamido)-4-oxopentanoic acid], the IC50 in assay [1] (Table 18, read-out: Whole human blood IC5O) amounted to 1000 nM; in assay [2] (Table 18), 9000 nM.

As to `CC(=O)Nc1cccc(C(=O)N[C@H]2CCC(=O)N3CCC[C@@H](C(=O)N[C@H](C=O)CC(=O)O)N3C2=O)c1` [Compound 450, [3S(1S,9S)]3-{9-[(3-Acetamido)benzamido]-6,10-dioxo-1,2,3,4,7,8,9,10-octahydro-6H-pyridazino[1,2-a][1,2]diazepine-1-carboxamido}-4-oxobutanoic acid], the IC50 was 1700 nM in assay [1] (setting [6]), 2200 nM in assay [1] (setting [4]) and 800 nM in assay [2] (setting [5]).

In the case of `O=C1C[C@H](NC(=O)[C@@H]2CCCN3C(=O)CC[C@H](NC(=O)c4cccc5ccccc45)C(=O)N23)C(OCc2ccccc2)O1` (stereo partly drawn) [Compound 213v, [1S,9S(2RS,3S)]N-(2-Benzyloxy-5-oxotetrahydrofuran-3-yl)-6,10-dioxo-9-(naphth-1-oylamino)-1,2,3,4,7,8,9,10-octahydro-6H-pyridazino[1,2-a][1,2]diazepine-1-carboxamide], the IC50 turned out to be 1100 nM in assay [1] (setting [3]) and 1100 nM in assay [2] (Homo sapiens, PBMC, Table 17).

Take `CC(C)OC(=O)C[C@H](NC(=O)[C@@H]1CCCN2C(=O)CC[C@H](NC(=O)c3ccccc3)C(=O)N12)C(OC(C)C)OC(C)C` [Compound 2100d]: the IC50 in assay [1] (setting [4]) and in assay [2] (setting [5]) was greater than 20000 nM throughout.

For the compound `CN(C)c1ccc(C(=O)N[C@H]2CCC(=O)N3CCC[C@@H](C(=O)N[C@H](C=O)CC(=O)O)N3C2=O)cc1` [Compound 471], the figures for the IC50 in assay [1] (setting [4]) and in assay [2] (setting [5]) were 400 nM and 750 nM, respectively.

`COC(=O)C[C@H](NC(=O)[C@@H]1CCCN2C(=O)CC[C@H](NC(=O)c3ccccc3)C(=O)N12)C(OC)OC` [Compound 2100c]: the IC50 in assay [1] (setting [4]) and in assay [2] (setting [5]) was greater than 20000 nM each time.

For the compound `O=C(O)C[C@H](NC(=O)[C@@H]1CCCN2C(=O)CC[C@H](NC(=O)c3ccccc3)C(=O)N12)C(=O)c1nc2cc(Cl)cc(Cl)c2o1` [Compound 223e, [3S(1S,9S)]3-(9-Benzoylamino-6,10-dioxo-1,2,3,4,7,8,9,10-octahydro-6H-pyridazino-[1,2-a][1,2]diazepine-1-carboxamido)-4-(5,7-dichlorobenzoxazol-2-yl)-4-oxobutanoic acid], the IC50 in assay [1] (setting [4]) is greater than 20000 nM; in assay [2] (setting [5]), 3000 nM.

In the case of `O=C[C@H](CC(=O)O)NC(=O)[C@@H]1CCCN2C(=O)CC[C@H](NC(=O)c3ccc(Cl)cc3)C(=O)N12` [Compound 416], the IC50 in assay [1] (setting [4]) amounted to 3400 nM; in assay [2] (setting [5]), 1200 nM.

For `Cc1ccccc1C(=O)N[C@H]1CCC(=O)N2CCC[C@@H](C(=O)N[C@H](C=O)CC(=O)O)N2C1=O` [Compound 404], the values for the IC50 in assay [1] (setting [4]), in assay [2] (setting [7]) and in assay [2] (setting [5]) were 1100 nM, 1800 nM and 1650 nM, respectively.

Consider `O=C[C@H](CC(=O)O)NC(=O)[C@@H]1CCCN2C(=O)CC[C@H](NC(=O)c3ccccc3)C(=O)N12` [Compound 214e, [3S(1S,9S)]3-(9-Benzoylamino-6,10-dioxo-1,2,3,4,7,8,9,10-octahydro-6H-pyridazino[1,2-a][1,2]-diazepine-1-carboxamido)-4-oxobutanoic acid], for which the IC50 was found to be 1300 nM in assay [1] (setting [4]) and 1600 nM in assay [2] (setting [5]).

Regarding `O=C[C@H](CC(=O)O)NC(=O)[C@@H]1CCCN2C(=O)CC[C@H](NC(=O)CCc3ccccc3)C(=O)N12` [Compound 47a, [3S(1S,9S)]3-(6,10-Dioxo-octahydro-9-(3-phenylpropionylamino)-6H-pyridazino[1,2-a][1,2]diazepine-1-carboxamido)-4-oxobutanoic acid], the IC50 in assay [1] (setting [4]) came out at 5100 nM; in assay [2] (setting [5]), 2600 nM.

In the case of `O=C[C@H](CC(=O)O)NC(=O)[C@@H]1CCCN2C(=O)CC[C@H](NC(=O)c3cccc(Cl)c3)C(=O)N12` [Compound 455], the IC50 in assay [1] (setting [6]) amounted to 2600 nM; in assay [1] (setting [4]), 2800 nM; in assay [2] (setting [5]) it was 400 nM.

Take `CC(=O)Nc1ccc(C(=O)NN2CCC(=O)N3CCC[C@@H](C(=O)N[C@H](C=O)CC(=O)O)N3C2=O)cc1` [Compound 1018, [3S(4S)]3-{7-[(4-Acetamido)benzamido]-6,10-Dioxo-1,2,3,4,7,8,9,10-octahydro-6H-pyridazino[1,2-a][1,2,4]-triazepine-4-carboxamido}-4-oxobutanoic acid]: the IC50 is 5500 nM in assay [1] (setting [3]) and 4000 nM in assay [2] (Homo sapiens, PBMC, Table 17).

For `O=C1C[C@H](NC(=O)[C@@H]2CCCN3C(=O)CC[C@H](NC(=O)c4ccccc4)C(=O)N23)C(OCc2ccccc2)O1` (stereo partly drawn) [Compound 213e, [1S,9S(2RS,3S)]9-Benzoylamino-6,10-dioxo-1,2,3,4,7,8,9,10-octahydro-N-(2-benzyloxy-5-oxotetrahydrofuran-3-yl)-6H-pyridazino[1,2-a][1,2]-diazepine-1-carboxamide], the IC50 in assay [1] (setting [6]) came out at 400 nM; in assay [1] (setting [4]), 600 nM; in assay [2] (setting [5]), 900 nM.

Regarding `O=C[C@H](CC(=O)O)NC(=O)[C@@H]1CCCN2C(=O)CC[C@H](NC(=O)c3cc4ccccc4[nH]3)C(=O)N12` [Compound 475, [3S(1S,9S)]3-[6,10-Dioxo-9-(indol-2-oylamino)-1,2,3,4,7,8,9,10-octahydro-6H-pyridazino[1,2-a][1,2]diazepine-1-carboxamido]-4-oxobutanoic acid], the IC50 in assay [1] (setting [6]) worked out at 350 nM; in assay [1] (setting [4]), 400 nM; in assay [2] (setting [7]), 650 nM; in assay [2] (setting [5]) it was 690 nM.

Turning to `O=C[C@H](CC(=O)O)NC(=O)[C@@H]1CCCN2C(=O)CCN(NS(=O)(=O)c3ccccc3)C(=O)N12` [Compound 1027, [3S(4S)]3-(6,10-Dioxo-1,2,3,4,7,8,9,10-octahydro-7-phenylsulphonylamino-6H-pyridazino[1,2-a][1,2,4]triazepine-4-carboxamido)-4-oxobutanoic acid], the IC50 in assay [1] (setting [4]) and in assay [2] (setting [5]) was greater than 20000 nM in each case.

Regarding `N#C[C@H](CC(=O)O)NC(=O)[C@@H]1CCCN2C(=O)CC[C@H](NC(=O)c3ccccc3)C(=O)N12` [Compound 232e, [3S(1S,9S)]9-(Benzoylamino)-3-[6,10-dioxo-1,2,3,4,7,8,9,10-octahydro-6H-pyridazino-[1,2-a][1,2]diazepine-1-carboxamido]-3-cyanopropanoic acid], the IC50 in assay [2] (setting [5]) stood at 4500 nM.

For `O=C[C@H](CC(=O)O)NC(=O)[C@@H]1CCCN2C(=O)CC[C@H](NC(=O)c3ccc4c(c3)OCO4)C(=O)N12` [Compound 415, [3S(1S,9S)]3-[6,10-Dioxo-9-(3,4-methylenedioxybenzoylamino)-1,2,3,4,7,8,9,10-octahydro-6H-pyridazino[1,2-a][1,2]diazepine-1-carboxamido]-4-oxobutanoic acid], the results for the IC50 in assay [2] (setting [7]) and in assay [2] (setting [5]) were 1000 nM and 990 nM, respectively.

`COC(=O)N[C@H]1CCC(=O)N2CCC[C@@H](C(=O)N[C@@H](CC(=O)O)C(=O)CSc3ncccn3)N2C1=O` [Compound 511c, [3S(1S,9S)]3-[6,10-Dioxo-9-(methoxycarbonyl)-amino-1,2,3,4,7,8,9,10-octahydro-6H-pyridazino[1,2-a][1,2]diazepine-1-carboxamido]-5-(2-mercaptopyrimidine)-4-oxopentanoic acid] returned an IC50 in assay [2] (Homo sapiens, PBMC, Table 17) greater than 20000 nM.
